These results are taken from patent US8173673B2, “Biofilm-inhibiting effect and anti-infective activity of N,C-linked aryl isoquinolines and the use thereof” (Julius-Maximilians-Universitaet Wuerzburg, priority 2006, dated 2012).

Where two headings read alike, the source gives them in different places.

As usually defined, the IC50 is the concentration that gives 50% inhibition.

What all share (assay type): cell-based
Series [1] concerns Leishmania major-promastigotes (MHOM/IL81/FE/BNI). Put plainly: Alamar Blue activity test against Leishmania major promastigotes. How it is done:
Leishmania major-promastigotes (MHOM/IL81/FE/BNI) were cultivated in blood agar-cultures at 26° C., 5% CO2, and 95% humidity. For the experiment, the promastigotes were washed twice with saline phosphate buffer (PBS) and subsequently suspended (10^8 cells/ml) in Click-RPMI-1640-medium without phenol red, spiked with 10% FCS, 2 mM L-glutamine, 1.0 mM HEPES-buffer, pH 7.2, 100 μg/ml penicillin, […] gentamycin, 7.5% NaHCO3 and 50 μM 2-mercaptoethanol (culture medium). For the determination of activity, 200 μl of the promastigote-suspension in microtiter plates were each incubated with the compounds in a geometric series of dilutions for 24 hours at 26° C., 5% CO2, and 95% humidity. Subsequently, 20 μl Alamar Blue (Trinova Biochem, Gieβen, Germany) were added to each of the microcultures, and the cultures were incubated further. Cultures that only contained medium and the compound, or only cellular suspension (without compound), served as controls. The optical density was measured after another 24 hours with an ELISA-reader at the wave lengths 550 nm and 630 nm. The IC50-values of the compounds were calculated through linear interpolation (J. Mikes, D. Steverding. Parasitol. Int. 2000, 48, 265-269).
Macrophages of the cell line J774.1 were washed and suspended in culture medium ([…]. For the test, 200 μl of the cell suspension and the compounds were pipetted in a geometric series of dilutions into cultures on microtiter plates. Following 24 hours of incubation at 37° C., 5% CO2, and 95% humidity, 20 μl Alamar Blue were added to each micro-culture, and the microtiter plate was incubated further. Micro-cultures with medium and the compound as well as micro-cultures that only contained cellular suspension (without compound), served as controls. The optical density was measured after 24, 48, and 72 hours with an ELISA-reader at the wavelengths 550 nm and 630 nm. The IC50-values of the compounds were calculated using linear interpolation. Amphotericin B served as a reference compound and positive control. […]

The test system of series [2] is Trypanosoma brucei brucei strain TC-221. Put plainly: Alamar Blue anti-trypanosome test, bloodstream forms. On the procedure:
Bloodstream-forms of the strain TC-221 of Trypanosoma brucei brucei were cultivated in enriched Baltz-culture medium in an atmosphere von 5% CO2 at 37° C. For activity determinations, a defined number of pathogens (10^4 trypanosomes per ml) were incubated in 96-well-plates with the compounds in different concentrations for 48 to 72 hours. The effect of the drugs was quantifiable using the ED50-values with linear interpolation. The trypanocidal activity of the test compounds was determined through measuring absorption on an MR 700 microplate reader (test wavelength 550 nm, reference wavelength 630 nm) by means of Alamar Blue®, an indicator of metabolic cellular functions. The addition of the dye took place 24 hours after starting the incubation. The color change of Alamar Blue® as used in this absorption measurements is based on reduction processes involving NADH or NADH-dependent enzymes. Incubation times and the concentrations of dye as required correlate with the metabolic activities of the trypanosomes. The MIC-value (minimum inhibitory concentration) was determined microscopically through counting of living cells in Neubauer-counting chambers. Suramine Na served both as positive control and reference.
The anti-trypanosomal activities of the compounds of the general structures 1-3 were studied based on a series of examples according to the above-described methods. The therapeutic index is the ratio of the cytoxicity (J774.1 macrophages) to the activities against Trypanosoma brucei brucei.
For orientation: The colour change of resazurin is a common sign of viable cells or microbes.

Series [3] deals with Plasmodium falciparum strain K1. Description: [3H]-hypoxanthine-inclusion-test, anti-plasmodium activity. An excerpt:
For the determination of the anti-plasmodium activities, cultures of Plasmodium falciparum strain K1 (resistant against chloroquine and pyrimethamine) were used. A modification (R. G. Ridley, W. Hofheinz, if Matile, C. Jacquet, A. Dorn, R. Masciadri, S. Jolidon, W. F. Richter, A. Guenzi, M. A. Girometta, H. Urwyler, W. Huber, S. Thaitong, W. Peters, Antimicrob. Agents Chemother. 1996, 40, 1846-1854) of the [^3H]-hypoxanthine-inclusion-test (R. E. Desjardins, C. J. Canfield, D. Haynes, J. Chulay, Antimicrob. Agents Chemother. 1979, 16, 710-718) was used. Human red blood cells infected with P. falciparum (0.3% infection) at a hematocrit of 2.5% (volume fraction of the red blood cells) in RPMI 1640 medium with the serum replacement Albumax II (5 g/L) were incubated with serial dilutions of the drugs in microtiter plates for 48 hours at 37° C. under a CO2-enriched and O2-reduced atmosphere. Then, 0.5 μCi [^3H]-hypoxanthine were added to each well of the microtiter plate, and after a further 24 hours of incubation time the wells were harvested with a Betaplate Cell Harvester onto glass fiber filters, and lysed with distilled water. The incorporation of radio-labeled hypoxanthine (which correlates with the quantity of living parasites) was determined using a scintillation counter. The IC50 value was determined from sigmoidal inhibition curves. The tests were performed in duplicate, and repeated at least once. Parasite cultures without additive served as control (100% incorporation), cultures with a dilution series of chloroquine served as positive control.
(§1) The anti-plasmodia activities of the compounds of the general structures 1-3 were studied based on a series of examples according to the above-described methods. The therapeutic index is the ratio of the IC50 values for rat myoblasts (L-6-cells=cytotoxicity) to the IC50 values for Plasmodium falciparum.

Series [4] concerns rat myoblasts (L-6-cells). Description: Cytotoxicity on rat myoblasts (L-6-cells). As to conditions: result in words.
Text: as §1

[5] abbreviates: Trypanosoma brucei, T. brucei brucei TC-221, after 48 h, read-out: ED50 (μM) after 48 h.
[6] abbreviates: Trypanosoma brucei, T. brucei brucei TC-221, after 72 h, read-out: ED50 (μM) after 72 h.
[7] abbreviates: P. falciparum strain K1 (resistant against chloroquine and pyrimethamine), read-out: IC50.

In the case of `COc1cc(OC)c2c(C)[n+](-c3ccc(C(C)C)cc3)c(C)cc2c1` [D], the half-maximal inhibitory concentration (IC50) in series [1] is 0.85 µM.

With `Cc1ccc(C(=O)Nc2ccc(S(=O)(=O)O)c3cc(S(=O)(=O)O)cc(S(=O)(=O)O)c23)cc1NC(=O)c1cccc(NC(=O)Nc2cccc(C(=O)Nc3cc(C(=O)Nc4ccc(S(=O)(=O)O)c5cc(S(=O)(=O)O)cc(S(=O)(=O)O)c45)ccc3C)c2)c1` [Suramin Na, reference compound], the EC50 in series [2] (T. brucei brucei TC-221, after 48 h, read-out: ED50 (μM) after 48 h) came out at 0.31 µM; in series [2] (T. brucei brucei TC-221, after 72 h, read-out: ED50 (μM) after 72 h), 0.32 µM.

With `COc1cc2c(c(OC)c1)C(C)=[N+](c1cccc3ccccc13)[C@@H](C)C2` [Compound 2a, (3S)—N,1′-naphthyl-6,8-dimethoxy-1,3-dimethyl-3,4-dihydroisoquinolinium-trifluoro-acetate], the EC50 in series [2] (setting [5]) came out at 0.39 µM; in series [2] (setting [6]), 0.356 µM.

The compound `CCN(CC)CCCC(C)Nc1ccnc2cc(Cl)ccc12` (stereo not shown) [chloroquine, reference compound] registered a 50% inhibitory concentration (IC50) in series [3] (K1) of 0.119 µM.

`COc1ccc(-[n+]2c(C)cc3cc(OC)cc(OC)c3c2C)c(OC)c1` [F]: the EC50 in series [2] (setting [5]) was 0.325 µM; in series [2] (setting [6]), 0.311 µM.

For `COc1cc(OC)c2c(C)[n+](-c3ccc(C)cc3)c(C)cc2c1` [B], in series [1], the IC50 was 2.45 µM.

With `COc1cc(OC)c2c(C)[n+](-c3ccc(Cl)cc3)c(C)cc2c1` [G], in series [3] (setting [7]), the IC50 turned out to be 0.056 µM.

In the case of `C[C@@H]1[C@H](O)[C@@H](C)/C=C/C=C/C=C/C=C/C=C/C=C/C=C/[C@H](O[C@@H]2O[C@H](C)[C@@H](O)[C@H](N)[C@@H]2O)C[C@@H]2O[C@](O)(C[C@@H](O)C[C@@H](O)[C@H](O)CC[C@@H](O)C[C@@H](O)CC(=O)O[C@H]1C)C[C@H](O)[C@H]2C(=O)O` [Amphotericin B, reference compound], the IC50 in series [1] amounted to 2.51 µM.

Consider `COc1cc(OC)c2c(C)[n+](-c3ccc(NC(C)=O)cc3)c(C)cc2c1` [I], for which the cytotoxicity entry in series [4] is “without a detectable cytotoxicity”. The IC50 in series [3] (setting [7]) came out at 0.211 µM.

For the compound `COc1cc(OC)c2c(C)[n+](-c3ccccc3OC)c(C)cc2c1` [E], the EC50 is 0.383 µM in series [2] (setting [5]) and 0.323 µM in series [2] (setting [6]).

For `COc1cc(OC)c2c(C)[n+](-c3ccc(C(F)(F)F)cc3)c(C)cc2c1` [H], the IC50 in series [3] (setting [7]) was determined as 0.282 µM.
